Laboratory results as given in patent US20230293535A1, “ERBB/BTK INHIBITORS” (Dizal (Jiangsu) Pharmaceutical Co., Ltd., priority 2018, published 2023).
Structures can show the parent of a compound that is named as a salt. Where two headings read alike, the source gives them in different places.

Key:
Format in all cases: cell-based
[1] = system: Ba/F3 EGFR NPH ins cells; test: Cell proliferation, Ba/F3 EGFR NPH ins (CellTiter-Glo, 72 h); conditions: Ba/F3 EGFR, 72 h;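 also: IL3-independent cells carrying constitutively phosphorylated EGFR, compound dilution series, viable cells quantified by ATP luminescence, growth relative to DMSO wells after subtracting pre-dosing (day 0) baseline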
[2] = molecular target: T1, human EGFR exon 20 V769_D770insASV (Homo sapiens, UniProt P00533, INS769ASV); test: EGFR Exon20 ASV insertion cellular phosphorylation inhibition (MSD pEGFR Y1068/total EGFR); conditions: Ba/F3 EGFR ASV ins cells, 4 h compound, p-EGFR(Y1068)/total EGFR;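 also: electrochemiluminescent readout on an MSD SECTOR Imager, IL3-independent transduced cells in medium with 1% FBS, compound concentration series at 37 °C and 5% CO2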
T1 construct: expressed in transfected cells; host or cells: Ba/F3 (DSMZ ACC-300), lentiviral transduction, puromycin selection, IL3 depletion
Experimental: To generate the EGFR exon 20 V769_D770insASV transduced Ba/F3 cell line, the parental Ba/F3 cells were infected with the recombinant EGFR V769_D770insASV lentivirus and then followed by 1 µg/ml of puromycin selection and IL3 depletion. The resulting cell line expresses constitutively phosphorylated EGFR protein and proliferates in the absence of IL3, which could be used for in vitro PD and anti-proliferation assays.
(§1) One day before the test, WT or mutant cells were seeded in 96 well plates at appropriate concentrations with corresponding growth media supplemented with 1% FBS, and incubated overnight. The next day, tested compounds at a series of concentrations were added into each individual well of the plates, and the plates were incubated for 4 h at 37° C. with 5% CO2.
The EGFR (Y1068) phosphorylation level (activity) of cells in each well were then measured with MSD kit named “MULTI-SPOT®96 4-Spot HB Prototype EGFR Triplex [sequence]: pEGFR(Tyr1068),pEGFR(Tyr1173), Total EGFR” according to the manufacturer’s instruction (MESO SCALE DISCOVERY, Cat# N45ZB-1). The assay is an electrochemiluminescent method for determining both phosphorylated and total EGFR of cells with an MSD SECTOR® Imager and the ratio of p-EGFR/total EGFR can be generated by the machine. The Her2 (Y1248) phosphorylation level (activity) of cells in each well were measured with MSD Kit named “Phospho-ErbB2 (Tyr1248) Assay Whole Cell Lysate Kit” according to the manufacturer’s instruction (MESO SCALE DISCOVERY, Cat# K151CLD-3). The assay is an electrochemiluminescent method (MESO SCALE DISCOVERY) for determining both phosphorylated and total Her2 of cells with an MSD SECTOR® Imager and then the ratio of p-Her2/total Her2 can be generated by the machine.

[3] = system: NCI-H1975 EGFR L858R/T790M cells; test: Cell proliferation, NCI-H1975 EGFR L858R/T790M (CellTiter-Glo, 72 h); conditions: Homo sapiens, NCI-H1975, 72 h;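 also: viable cells quantified by luciferase-based ATP luminescence, proliferation expressed relative to DMSO-treated wells (100%) after subtracting a parallel plate read at the time of dosing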
[4] = molecular target: T2, human EGFR exon 20 H773_V774insNPH (Homo sapiens, UniProt P00533, INS773NPH); test: EGFR Exon20 NPH insertion cellular phosphorylation inhibition (MSD pEGFR Y1068/total EGFR); conditions: Ba/F3 EGFR NPH ins cells, 4 h compound, p-EGFR(Y1068)/total EGFR;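 also: IL3-independent Ba/F3 cells with constitutively phosphorylated EGFR, compound exposure at 37 °C under 5% CO2, electrochemiluminescent MSD measurement of the p-EGFR to total EGFR ratio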
T2 construct: host or cells: Ba/F3
Experimental: as §1
The EGFR (Y1068) phosphorylation level (activity) of cells in each well were then measured with MSD kit named “MULTI-SPOT®96 4-Spot HB Prototype EGFR Triplex [sequence]: pEGFR(Tyr1068),pEGFR(Tyr1173), Total EGFR” according to the manufacturer’s instruction (MESO SCALE DISCOVERY, Cat# N45ZB-1). The assay is an electrochemiluminescent method for determining both phosphorylated and total EGFR of cells with an MSD SECTOR® Imager and the ratio of p-EGFR/total EGFR can be generated by the machine.

[5] = molecular target: T3, WT EGFR (Homo sapiens, UniProt P00533); test: WT EGFR cellular phosphorylation inhibition in A-431 (hEGF stimulated, MSD); conditions: A431 cells, 4 h compound, then 100 ng/ml hEGF 10 min;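 also: electrochemiluminescence read-out of EGFR Tyr1068 phosphorylation expressed as ratio to total EGFR, cells kept in medium with 1% FBS, compounds tested as a concentration series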
T3 construct: host or cells: A-431

[6] = molecular target: T4, human Her2 exon 20 insertion mutation YVMA (Homo sapiens, UniProt P04626, INS775YVMA); test: Her2 Exon 20 YVMA insertion cellular phosphorylation inhibition (MSD p-Her2 Y1248/total Her2); conditions: Her2 YVMAins cells, 4 h compound;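 also: lentivirally transduced NIH-3T3 cells in 1% FBS medium, electrochemiluminescent MSD read-out, graded compound concentrations at 37 °C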
T4 construct: expressed in transfected cells; host or cells: NIH-3T3, lentiviral transduction, puromycin selection

[7] = system: WT EGFR cell line A-431; test: Cell proliferation, WT EGFR A431 (CellTiter-Glo, 72 h); conditions: Homo sapiens, A-431, 72 h;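 also: proliferation from a luminescent ATP viability signal, expressed as 100 × (treated minus time-zero plate) over (DMSO control minus time-zero plate), cells grown with 10% FBS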
[8] = molecular target: T5, EGFR L858R&T790M (Homo sapiens, UniProt P00533, L858R/T790M); test: EGFR L858R and T790M cellular phosphorylation inhibition in NCI-H1975 (MSD); conditions: NCI-H1975 cells, 4 h compound, p-EGFR(Y1068)/total EGFR; read-out: EGFR L858R and T790M mutation IC50;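 also: phosphorylated and total EGFR detected by electrochemiluminescence, cells exposed to compound in medium containing 1% FBS at 37 °C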
T5 construct: host or cells: NCI-H1975

[9] = system: Her2 exon 20 insertion YVMA transduced NIH-3T3 cell line; test: Cell proliferation, Her2 YVMAins NIH-3T3 (CellTiter-Glo, 72 h); conditions: Mus musculus, NIH3T3, 72 h, Her2 YVMAins cells, 72 h proliferation; read-out: Her2 Exon 20 YVMA insertion GI50;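 also: viable cells quantified by ATP luminescence, growth over a day-zero baseline plate expressed as percent of DMSO control growth, compound dilution series in 10% FBS medium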
[10] = system: Ba/F3 EGFR ASV ins cells; test: Cell proliferation, Ba/F3 EGFR ASV ins (CellTiter-Glo, 72 h); conditions: Ba/F3 EGFR, 72 h;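 also: IL3-independent Ba/F3 cells transduced with EGFR V769_D770insASV, cellular ATP luminescence after compound exposure, growth relative to DMSO control with the day-0 baseline reading subtracted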
[11] = system: Ri-1 cells; test: BTK (wt) cell proliferation, Ri-1 (CellTiter-Glo, 72 h); conditions: Ri-1, 72 h, Ri-1 cells, 72 h, CellTiter-Glo; read-out: BTK WT Ri-1 GI50;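 also: viable cells quantified as cellular ATP luminescence, proliferation normalized to a time-zero plate and the DMSO control, compounds tested across a dilution series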
[12] = system: OCI-LY-10 cells; test: BTK (wt) cell proliferation, OCI-LY-10 (CellTiter-Glo, 72 h); conditions: Homo sapiens, OCI-Ly10, 72 h, OCI-LY-10 cells, 72 h, CellTiter-Glo; read-out: BTK WT OCI-LY-10 GI50;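 also: viable cells quantified via cellular ATP luminescence, proliferation given as percent of DMSO control after subtracting a duplicate plate read at time of dosing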
[13] = system: DB cells; test: BTK (wt) cell proliferation, DB (CellTiter-Glo, 72 h); conditions: Homo sapiens, DB, DB cells, CellTiter-Glo, read-out: Non-BCR activated DB GI50;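 also: DB cells in 384-well plates given a dilution series of compound, viable cells read by ATP luminescence, growth expressed versus DMSO control after subtracting a time-zero plate reading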
[14] = system: TMD-8 cells; test: BTK (wt) cell proliferation, TMD-8 (CellTiter-Glo, 72 h); conditions: Homo sapiens, TMD8, 72 h, TMD-8 cells, 72 h, CellTiter-Glo; read-out: BTK WT TMD-8 GI50;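 also: viable cells quantified by ATP-based luminescence, proliferation expressed as percent of DMSO control after subtracting a time-zero baseline plate read at dosing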
[15] = Ba/F3 EGFR NPH ins, 72 h proliferation, read-out: EGFR Exon20 NPH insertion GI50
[16] = NCI-H1975, 72 h proliferation, read-out: EGFR L858R and T790M mutation GI50
[17] = A431, 72 h proliferation, read-out: EGFR WT A431 GI50
[18] = Ba/F3 EGFR ASV ins, 72 h proliferation, read-out: EGFR Exon20 ASV insertion GI50

T3 sequence (P00533 25-1210): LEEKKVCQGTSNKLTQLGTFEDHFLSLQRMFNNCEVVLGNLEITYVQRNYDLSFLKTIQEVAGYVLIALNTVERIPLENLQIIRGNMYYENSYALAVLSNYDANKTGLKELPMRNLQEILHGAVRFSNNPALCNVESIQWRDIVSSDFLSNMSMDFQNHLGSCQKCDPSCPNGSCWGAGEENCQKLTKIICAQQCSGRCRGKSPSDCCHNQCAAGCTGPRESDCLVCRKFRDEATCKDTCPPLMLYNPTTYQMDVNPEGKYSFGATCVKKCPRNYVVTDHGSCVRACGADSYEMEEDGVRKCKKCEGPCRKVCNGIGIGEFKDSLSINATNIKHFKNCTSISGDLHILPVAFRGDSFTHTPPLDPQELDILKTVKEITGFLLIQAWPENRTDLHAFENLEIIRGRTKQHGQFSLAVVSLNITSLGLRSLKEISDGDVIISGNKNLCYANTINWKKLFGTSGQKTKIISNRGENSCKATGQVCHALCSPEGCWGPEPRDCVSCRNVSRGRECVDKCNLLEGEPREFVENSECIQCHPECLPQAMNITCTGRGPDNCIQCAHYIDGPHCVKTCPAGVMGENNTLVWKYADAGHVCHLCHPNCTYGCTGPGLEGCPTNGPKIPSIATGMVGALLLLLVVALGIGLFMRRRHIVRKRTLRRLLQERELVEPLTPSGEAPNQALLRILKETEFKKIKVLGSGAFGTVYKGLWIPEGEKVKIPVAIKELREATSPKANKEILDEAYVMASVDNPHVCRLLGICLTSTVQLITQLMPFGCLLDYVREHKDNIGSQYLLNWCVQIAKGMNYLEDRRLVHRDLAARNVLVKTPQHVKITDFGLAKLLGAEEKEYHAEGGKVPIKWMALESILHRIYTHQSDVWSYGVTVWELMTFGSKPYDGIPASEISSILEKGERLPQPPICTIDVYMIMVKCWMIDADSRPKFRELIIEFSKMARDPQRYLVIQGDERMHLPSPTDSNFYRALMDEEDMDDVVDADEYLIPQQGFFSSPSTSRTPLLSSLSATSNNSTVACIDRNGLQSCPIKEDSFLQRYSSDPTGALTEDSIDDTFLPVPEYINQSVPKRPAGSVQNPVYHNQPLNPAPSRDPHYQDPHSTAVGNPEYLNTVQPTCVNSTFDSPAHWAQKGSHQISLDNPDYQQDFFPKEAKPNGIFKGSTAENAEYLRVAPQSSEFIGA
T1 sequence (P00533 with tags, fused parts or gaps INS769ASV): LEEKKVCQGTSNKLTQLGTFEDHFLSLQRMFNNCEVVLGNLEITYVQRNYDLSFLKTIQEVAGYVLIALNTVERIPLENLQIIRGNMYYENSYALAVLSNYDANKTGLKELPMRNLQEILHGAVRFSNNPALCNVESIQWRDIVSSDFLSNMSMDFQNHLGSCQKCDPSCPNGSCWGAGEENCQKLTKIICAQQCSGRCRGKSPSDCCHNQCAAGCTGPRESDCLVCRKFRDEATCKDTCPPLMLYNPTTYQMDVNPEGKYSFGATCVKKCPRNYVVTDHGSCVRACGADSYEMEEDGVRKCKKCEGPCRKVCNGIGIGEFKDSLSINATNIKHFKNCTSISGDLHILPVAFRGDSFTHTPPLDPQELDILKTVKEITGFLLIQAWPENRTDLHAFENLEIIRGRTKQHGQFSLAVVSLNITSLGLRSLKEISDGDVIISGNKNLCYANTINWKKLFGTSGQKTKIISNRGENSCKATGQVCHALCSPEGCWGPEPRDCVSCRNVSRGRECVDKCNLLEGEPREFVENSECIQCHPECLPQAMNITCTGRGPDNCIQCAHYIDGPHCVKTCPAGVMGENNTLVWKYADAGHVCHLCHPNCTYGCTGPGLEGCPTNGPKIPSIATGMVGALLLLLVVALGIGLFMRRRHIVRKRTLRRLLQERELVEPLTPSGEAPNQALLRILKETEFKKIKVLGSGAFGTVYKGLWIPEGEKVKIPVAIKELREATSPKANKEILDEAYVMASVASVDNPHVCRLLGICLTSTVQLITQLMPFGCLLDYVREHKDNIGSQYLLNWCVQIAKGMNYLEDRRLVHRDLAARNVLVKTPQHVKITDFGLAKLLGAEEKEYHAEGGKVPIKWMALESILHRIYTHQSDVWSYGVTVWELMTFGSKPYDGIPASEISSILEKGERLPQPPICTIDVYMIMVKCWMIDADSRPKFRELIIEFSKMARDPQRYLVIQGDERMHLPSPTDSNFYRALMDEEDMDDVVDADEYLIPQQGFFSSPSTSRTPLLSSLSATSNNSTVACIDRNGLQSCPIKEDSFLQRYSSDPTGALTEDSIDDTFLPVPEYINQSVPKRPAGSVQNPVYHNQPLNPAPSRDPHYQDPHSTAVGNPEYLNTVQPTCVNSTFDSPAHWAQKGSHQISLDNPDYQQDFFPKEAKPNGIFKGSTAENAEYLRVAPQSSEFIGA
T4 sequence (P04626 with tags, fused parts or gaps INS775YVMA): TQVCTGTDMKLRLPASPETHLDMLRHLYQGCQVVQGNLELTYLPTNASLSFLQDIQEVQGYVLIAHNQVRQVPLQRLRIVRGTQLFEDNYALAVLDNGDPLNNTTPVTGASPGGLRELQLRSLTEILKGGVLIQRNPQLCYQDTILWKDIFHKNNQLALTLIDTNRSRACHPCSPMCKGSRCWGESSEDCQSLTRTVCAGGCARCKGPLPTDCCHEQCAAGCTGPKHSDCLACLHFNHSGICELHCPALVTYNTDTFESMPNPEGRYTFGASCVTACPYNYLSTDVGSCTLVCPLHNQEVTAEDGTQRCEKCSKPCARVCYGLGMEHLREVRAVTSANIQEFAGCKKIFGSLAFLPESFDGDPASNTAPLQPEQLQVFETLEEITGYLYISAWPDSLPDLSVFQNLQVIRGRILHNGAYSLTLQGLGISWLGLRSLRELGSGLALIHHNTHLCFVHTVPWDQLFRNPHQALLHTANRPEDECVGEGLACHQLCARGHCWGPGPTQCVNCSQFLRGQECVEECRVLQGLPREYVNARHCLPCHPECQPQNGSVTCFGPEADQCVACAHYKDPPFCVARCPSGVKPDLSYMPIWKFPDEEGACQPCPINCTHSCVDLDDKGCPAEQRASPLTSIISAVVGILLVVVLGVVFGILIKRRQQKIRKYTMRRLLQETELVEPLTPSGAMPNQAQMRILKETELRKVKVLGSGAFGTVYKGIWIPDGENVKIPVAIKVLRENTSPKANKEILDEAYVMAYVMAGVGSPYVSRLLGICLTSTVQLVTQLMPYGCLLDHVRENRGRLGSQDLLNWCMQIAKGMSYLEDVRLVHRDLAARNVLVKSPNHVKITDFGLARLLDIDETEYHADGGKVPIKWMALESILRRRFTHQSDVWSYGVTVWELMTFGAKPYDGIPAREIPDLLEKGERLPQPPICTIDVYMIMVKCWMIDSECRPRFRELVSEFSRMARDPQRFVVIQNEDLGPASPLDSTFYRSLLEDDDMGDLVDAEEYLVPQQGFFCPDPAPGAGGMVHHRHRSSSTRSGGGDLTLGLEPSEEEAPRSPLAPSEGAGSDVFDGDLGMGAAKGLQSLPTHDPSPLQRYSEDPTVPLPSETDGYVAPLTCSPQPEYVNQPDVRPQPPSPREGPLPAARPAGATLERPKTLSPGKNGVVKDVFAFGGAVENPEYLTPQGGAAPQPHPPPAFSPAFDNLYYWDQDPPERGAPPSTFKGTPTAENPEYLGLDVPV
T5 sequence (P00533 25-1210 T790M/L858R): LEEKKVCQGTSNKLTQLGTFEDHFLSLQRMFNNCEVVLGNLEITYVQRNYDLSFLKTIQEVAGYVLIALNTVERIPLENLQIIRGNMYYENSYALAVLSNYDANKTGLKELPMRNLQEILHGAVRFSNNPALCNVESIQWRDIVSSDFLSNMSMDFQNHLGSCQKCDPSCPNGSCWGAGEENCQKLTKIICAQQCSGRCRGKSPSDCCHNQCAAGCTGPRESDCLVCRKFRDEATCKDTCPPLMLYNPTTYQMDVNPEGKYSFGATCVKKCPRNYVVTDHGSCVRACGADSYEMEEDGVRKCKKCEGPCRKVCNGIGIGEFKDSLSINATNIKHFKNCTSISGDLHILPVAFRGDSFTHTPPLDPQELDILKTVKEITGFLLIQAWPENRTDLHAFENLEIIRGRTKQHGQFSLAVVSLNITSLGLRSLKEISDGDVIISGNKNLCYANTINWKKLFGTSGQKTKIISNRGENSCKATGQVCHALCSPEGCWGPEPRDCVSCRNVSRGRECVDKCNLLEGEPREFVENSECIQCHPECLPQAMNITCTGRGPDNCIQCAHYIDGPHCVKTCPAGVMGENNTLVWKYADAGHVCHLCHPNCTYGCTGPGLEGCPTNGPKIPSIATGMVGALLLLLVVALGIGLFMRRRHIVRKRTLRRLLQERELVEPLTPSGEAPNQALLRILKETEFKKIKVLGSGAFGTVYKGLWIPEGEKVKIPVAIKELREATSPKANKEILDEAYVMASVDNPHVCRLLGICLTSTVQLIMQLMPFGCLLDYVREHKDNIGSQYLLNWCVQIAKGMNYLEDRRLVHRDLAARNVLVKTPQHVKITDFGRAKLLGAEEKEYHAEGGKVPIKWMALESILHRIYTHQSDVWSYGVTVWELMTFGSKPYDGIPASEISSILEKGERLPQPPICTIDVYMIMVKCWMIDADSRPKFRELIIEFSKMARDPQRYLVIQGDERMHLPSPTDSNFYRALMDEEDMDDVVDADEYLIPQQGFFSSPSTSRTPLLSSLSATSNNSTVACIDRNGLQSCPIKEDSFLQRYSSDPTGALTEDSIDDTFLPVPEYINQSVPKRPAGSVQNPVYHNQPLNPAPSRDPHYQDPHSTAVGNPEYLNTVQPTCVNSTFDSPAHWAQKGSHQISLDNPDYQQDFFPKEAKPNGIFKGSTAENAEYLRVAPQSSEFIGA

Structure (SMILES) | GI50 [1, 15] | IC50 [2] | GI50 [3, 16] | IC50 [4] | IC50 [5] | IC50 [6] | GI50 [7, 17] | IC50 [8] | GI50 [10, 18] | GI50 [12] | GI50 [9] | GI50 [11] | GI50 [13] | GI50 [14] | GI50 ([1]; read-out: EGFR Exon20 NPH insertion GI50 (nM)) | GI50 ([3]; read-out: EGFR L858R and T790M mutation GI50 (nM)) | GI50 ([7]; read-out: EGFR WT A431 GI50 (nM)) | GI50 ([10]; read-out: EGFR Exon20 ASV insertion GI50 (nM))
C=CC(=O)Nc1cc(Nc2ncnc(Nc3ccccc3C(C)(C)O)n2)c(OC)cc1N1CCC[C@@H](N(C)C)C1 [Compound 1, (R)-N-(2-(3-(dimethylamino)piperidin-1-yl)-5-(4-(2-(2-hydroxypropan-2-yl)phenylamino)-1,3,5-triazin-2-ylamino)-4-methoxyphenyl)acrylamide] | 999 nM | 386 nM | 282 nM | 423 nM | 599 nM | 318 nM | 334 nM | 5.2 nM | 926 nM |  | 905 nM |  |  |  |  |  |  | 
COc1cc(N(C)CCN(C)C)c(NC(=O)/C=C/CN(C)C)cc1Nc1ncnc(Nc2cc(F)c(F)cc2C(C)(C)O)n1 [Compound 5, (E)-N-(5-(4-(4,5-difluoro-2-(2-hydroxypropan-2-yl)phenylamino)-1,3,5-triazin-2-ylamino)-2-((2-(dimethylamino)ethyl)(methyl)amino)-4-methoxypheny 1)-4-(dimethylamino)but-2-enamide] | 461 nM | 170 nM | 114 nM | 271 nM | 90.3 nM | 36.2 nM | 117 nM | 6.3 nM | 234 nM |  | 68.9 nM |  |  |  |  |  |  | 
C=CC(=O)Nc1cc(Nc2ncnc(Nc3cc(F)c(F)cc3C(C)(C)O)n2)c(OC)cc1N1CC[C@H]2CN(C)C[C@H]21 [Compound 25, N-(5-(4-(4,5-difluoro-2-(2-hydroxypropan-2-yl)phenylamino)-1,3,5-triazin-2-ylamino)-4-methoxy-2-((3aS,6aS)-5-methylhexahydropyrrolo[3,4-b]pyrrol-1(2H)-yl)phenyl) acrylamide] | 618 nM | 388 nM | 165 nM | 376 nM | 838 nM | 534 nM | 329 nM | 7.9 nM | 552 nM |  | 989 nM |  |  |  |  |  |  | 
C=CC(=O)Nc1cc(Nc2ncnc(Nc3cc(F)c(F)cc3C(C)(O)CC)n2)c(OC)cc1N1CC[C@H]2CN(C)C[C@H]21 (some centres unmarked) [Compound 50, N-(5-(4-(4,5-difluoro-2-(2-hydroxybutan-2-yl)phenylamino)-1,3,5-triazin-2-ylamino)-4-methoxy-2-((3 aS, 6aS)-5-methylhexahydropyrrolo[3,4-b]pyrrol-1 (2H)-yl)phenyl) acrylamide] | 802 nM | 308 nM | 30 nM | 2630 nM | 1110 nM | 382 nM | 277 nM | 19 nM | 449 nM |  | 1080 nM |  |  |  |  |  |  | 
C=CC(=O)Nc1cc(Nc2ncnc(Nc3cc(Cl)c(F)cc3C(C)(O)CC)n2)c(OC)cc1N1CCC[C@H]1CN(C)C (stereo partly drawn) [Compound 64, N-(5-(4-(5-chloro-4-fluoro-2-(2-hydroxybutan-2-yl)phenylamino)-1,3,5-triazin-2-ylamino)-2-((S)-2-((dimethylamino)methyl)pyrrolidin-1-yl)-4-methoxyphenyl)acrylamide] | 359 nM | 240 nM | 24.2 nM | 267 nM | 555 nM | 143 nM | 220 nM | 7.1 nM | 395 nM |  | 640 nM |  |  |  |  |  |  | 
C=CC(=O)Nc1cc(Nc2ncnc(Nc3cc(Cl)c(F)cc3C(C)(C)O)n2)c(OC)cc1N1CCC[C@H]1CN(C)C [Compound 65, (S)-N-(5-(4-(5-chloro-4-fluoro-2-(2-hydroxypropan-2-yl)phenylamino)-1,3,5-triazin-2-ylamino)-2-(2-((dimethylamino)methyl)pyrrolidin-1-yl)-4-methoxyphenyl)acrylamide] | 382 nM | 358 nM | 29.6 nM | 315 nM | 479 nM | 188 nM | 234 nM | 7.9 nM | 484 nM |  | 776 nM |  |  |  |  |  |  | 
C=CC(=O)Nc1cc(Nc2nccc(Nc3cc(Cl)c(F)cc3C(C)(C)O)n2)c(OC)cc1N1C[C@H](N(C)C)C2(CC2)C1 [Compound 83, (R)-N-(5-(4-(5-chloro-4-fluoro-2-(2-hydroxypropan-2-yl)phenylamino)pyrimidin-2-ylamino)-2-(7-(dimethylamino)-5-azaspiro[2.4]heptan-5-yl)-4-methoxyphenyl) acrylamide formic acid salt] |  | 154 nM |  | 239 nM | 1010 nM | 87.6 nM |  | 5 nM |  |  | 678 nM |  |  |  | 300 nM | 38.9 nM | 252 nM | 340 nM

Continued, in another order:

GI50 [1, 15] | IC50 [2] | GI50 [3, 16] | IC50 [4] | IC50 [5] | IC50 [6] | GI50 [7, 17] | IC50 [8] | GI50 [10, 18] | GI50 [12] | Structure (SMILES) | GI50 [9] | GI50 [11] | GI50 [13] | GI50 [14] | GI50 ([1]; read-out: EGFR Exon20 NPH insertion GI50 (nM)) | GI50 ([3]; read-out: EGFR L858R and T790M mutation GI50 (nM)) | GI50 ([7]; read-out: EGFR WT A431 GI50 (nM)) | GI50 ([10]; read-out: EGFR Exon20 ASV insertion GI50 (nM))
56 nM | 13.4 nM | 13.9 nM | 19.7 nM | 21.3 nM | 4.6 nM | 26.6 nM | 0.5 nM | 42.2 nM | 134 nM | C=CC(=O)Nc1cc(Nc2ncnc(Nc3ccccc3C3(O)CC3)n2)c(OC)cc1N(C)CCN(C)C [Compound 2, N-(2-((2-(dimethylamino)ethyl)(methyl)amino)-5-(4-(2-(1-hydroxycyclopropyl)phenylamino)-1,3,5-triazin-2-ylamino)-4-methoxyphenyl)acrylamide] | 45.2 nM | 86.6 nM | > 3000 nM | 130 nM |  |  |  | 
307 nM | 92.4 nM | 55.6 nM | 296 nM | 103 nM | 51.2 nM | 69.3 nM | 3.1 nM | 252 nM | 2510 nM | C=CC(=O)Nc1cc(Nc2ncnc(Nc3cnc(F)cc3C(C)(C)O)n2)c(OC)cc1N(C)CCN(C)C [Compound 3, N-(2-((2-(dimethylamino)ethyl)(methyl)amino)-5-(4-(6-fluoro-4-(2-hydroxypropan-2-yl)pyridin-3-ylamino)-1,3,5-triazin-2-ylamino)-4-methoxyphenyl) acrylamide] | 183 nM | > 3000 nM | > 3000 nM | 635 nM |  |  |  | 
32.2 nM | 6.1 nM | 6.9 nM | 8.2 nM | 11.1 nM | 5.5 nM | 15.7 nM | 0.4 nM | 20.7 nM | 8.9 nM | C=CC(=O)Nc1cc(Nc2ncnc(Nc3cc(F)c(F)cc3C(C)(C)O)n2)c(OC)cc1N(C)CCN(C)C [Compound 4, N-(5-(4-(4,5-difluoro-2-(2-hydroxypropan-2-yl)phenylamino)-1,3,5-triazin-2-ylamino)-2-((2-(dimethylamino)ethyl)(methyl)amino)-4-methoxyphenyl)ac rylamide] | 31 nM | 61.4 nM | > 3000 nM | 77.1 nM |  |  |  | 
137 nM | 63.3 nM | 8.5 nM | 35.8 nM | 133 nM | 33.9 nM | 53.2 nM | 1.8 nM | 144 nM |  | C=CC(=O)Nc1cc(Nc2ncnc(Nc3cc(Cl)c(F)cc3C(C)(C)O)n2)c(OC)cc1N(C)CCN1CCC[C@@H]1C [Compound 42, (S)-N-(5-(4-(5-chloro-4-fluoro-2-(2-hydroxypropan-2-yl)phenylamino)-1,3,5-triazin-2-ylamino)-4-methoxy-2-(methyl(2-(2-methylpyrrolidin-1-yl)ethyl)amino)phenyl) acrylamide] | 195 nM |  |  |  |  |  |  | 
